Assay results published in patent US20080275058A1, “N-Substituted-1H-Quinoline-2,4-Diones, Preparation Method Thereof, And Pharmaceutical Composition Containing The Same” (KOREA RESEARCH INSTITUTE OF CHEMICAL TECHNOLOGY, priority 2005, published 2008).
Read-outs that look alike come from different tables or passages of the source.

Experiments:
[1] = Rotarod deficit in mice; assay type: in vivo, mouse; conditions: mouse, in vivo, po, unit printed as image, read-out: TD50 (median neurotoxic dose)
Description: (§1) The mouse was placed on a 1 inch diameter knurled plastic rod rotating at 6 rpm (Ugo-Basile, Milano, Italy), and the rotarod deficit (%) was obtained by counting the number of animals fallen from the rotating rod within 1 min [Dunham et al., 1957] at 60, 90 and 120 min after the injection of the compound according to the invention(200, 300 or 400 ? ). […] The compounds of the examples were suspended in 3% Tween 80 solution, and were administered (p.o.) 60 min before the testing.

[2] = test system: mice; assay: Rotarod deficit in mice; assay type: in vivo, mouse
Description: as §1

[3] = target: T1, 5-HT1a (Homo sapiens, UniProt P08908); assay: Radioligand binding, 5-HT1a ([3H]8-OH-DPAT); conditions: Table 4; [3H]8-OH-DPAT 0.5 nM; read-out: Binding affinity, IC50 (nM) 5-HT1a
T1 construct: purchased Euroscreen/BioSignal Packard Inc
T1 sequence (P08908 1-422): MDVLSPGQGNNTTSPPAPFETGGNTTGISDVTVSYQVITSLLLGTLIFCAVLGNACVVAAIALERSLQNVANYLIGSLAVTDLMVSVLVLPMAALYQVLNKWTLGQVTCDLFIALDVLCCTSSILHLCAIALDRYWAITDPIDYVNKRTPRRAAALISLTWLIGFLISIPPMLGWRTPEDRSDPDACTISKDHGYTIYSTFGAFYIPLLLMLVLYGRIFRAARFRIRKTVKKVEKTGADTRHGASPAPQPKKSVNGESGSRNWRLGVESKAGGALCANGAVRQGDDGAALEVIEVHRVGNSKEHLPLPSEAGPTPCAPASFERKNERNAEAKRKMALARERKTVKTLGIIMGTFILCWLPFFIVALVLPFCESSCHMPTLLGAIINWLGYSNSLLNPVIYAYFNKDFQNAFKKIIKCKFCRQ
Outline: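 Membranes bearing the receptor, bought in; radioligand displacement run per supplier protocol.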

[4] = target: T2, 5-HT2a (Homo sapiens, UniProt P28223); assay: Radioligand binding, 5-HT2a ([3H]Ketanserin); conditions: Table 4; [3H]Ketanserin 1 nM; read-out: Binding affinity, IC50 (nM) 5-HT2a
T2 construct: purchased Euroscreen/BioSignal Packard Inc
T2 sequence (P28223 whole entry): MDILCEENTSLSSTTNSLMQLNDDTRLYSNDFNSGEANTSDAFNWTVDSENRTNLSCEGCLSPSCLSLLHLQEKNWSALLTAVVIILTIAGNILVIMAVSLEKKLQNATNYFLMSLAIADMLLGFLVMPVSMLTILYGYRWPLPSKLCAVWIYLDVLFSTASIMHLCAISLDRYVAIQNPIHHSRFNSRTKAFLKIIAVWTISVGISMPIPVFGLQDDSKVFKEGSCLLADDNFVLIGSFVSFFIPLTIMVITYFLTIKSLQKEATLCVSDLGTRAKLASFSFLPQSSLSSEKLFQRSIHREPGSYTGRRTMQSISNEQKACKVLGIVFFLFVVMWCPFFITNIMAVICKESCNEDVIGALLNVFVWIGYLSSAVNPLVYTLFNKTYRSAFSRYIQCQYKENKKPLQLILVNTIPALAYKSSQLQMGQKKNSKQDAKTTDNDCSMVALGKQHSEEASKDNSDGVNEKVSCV

[5] = target: T3, hD3 (Homo sapiens, UniProt P35462); assay: Radioligand binding, dopamine D3 ([3H]spiperone); conditions: Table 4; [3H]spiperone 1 nM; read-out: Binding affinity, IC50 (nM) D3
T3 construct: purchased BioSignal Packard Inc., Montreal, Canada
T3 sequence (P35462 whole entry): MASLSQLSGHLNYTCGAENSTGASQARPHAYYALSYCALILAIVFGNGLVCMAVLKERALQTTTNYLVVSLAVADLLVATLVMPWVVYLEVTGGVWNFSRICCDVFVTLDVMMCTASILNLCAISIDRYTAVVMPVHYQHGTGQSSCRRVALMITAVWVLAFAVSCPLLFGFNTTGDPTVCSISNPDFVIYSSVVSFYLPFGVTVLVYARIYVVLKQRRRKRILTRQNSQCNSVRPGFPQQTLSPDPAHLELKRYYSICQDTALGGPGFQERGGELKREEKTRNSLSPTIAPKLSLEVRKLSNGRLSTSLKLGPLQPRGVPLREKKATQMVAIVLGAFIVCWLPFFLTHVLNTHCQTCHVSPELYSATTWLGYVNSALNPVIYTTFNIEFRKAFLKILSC
Outline: (§2)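 IC50 values come from nonlinear fits of three displacement experiments, each using 7-8 test concentrations in duplicate. D2L and D3 membranes were labelled with 1 nM [3H]spiperone, and D4.2 with 0.06 nM [3H]YM-09151-2. All assays used pH 7.4 Tris buffers, with the D3 buffer adding 120 mM NaCl, KCl and CaCl2.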

[6] = target: T4, 5-HT7 (Homo sapiens, UniProt P34969); assay: Radioligand binding, 5-HT7 ([3H]LSD); conditions: Table 4; [3H]LSD 3 nM; read-out: Binding affinity, IC50 (nM) 5-HT7
T4 construct: purchased Euroscreen/BioSignal Packard Inc
T4 sequence (P34969 whole entry): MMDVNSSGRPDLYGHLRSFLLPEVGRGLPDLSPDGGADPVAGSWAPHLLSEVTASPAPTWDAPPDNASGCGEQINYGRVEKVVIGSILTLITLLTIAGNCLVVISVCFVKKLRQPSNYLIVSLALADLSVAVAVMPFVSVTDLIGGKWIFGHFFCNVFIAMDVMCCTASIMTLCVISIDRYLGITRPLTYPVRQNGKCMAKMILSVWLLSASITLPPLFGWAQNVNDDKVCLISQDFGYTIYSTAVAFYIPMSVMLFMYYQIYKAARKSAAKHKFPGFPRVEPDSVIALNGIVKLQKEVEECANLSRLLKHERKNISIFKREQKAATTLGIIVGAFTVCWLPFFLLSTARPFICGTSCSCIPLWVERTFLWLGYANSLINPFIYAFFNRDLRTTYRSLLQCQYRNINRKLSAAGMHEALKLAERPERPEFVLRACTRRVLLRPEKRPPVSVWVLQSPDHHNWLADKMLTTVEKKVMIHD

[7] = target: T5, 5-HT2c (Homo sapiens, UniProt P28335); assay: Radioligand binding, 5-HT2c ([3H]Mesulergine); conditions: Table 4; [3H]Mesulergine 1 nM; read-out: Binding affinity, IC50 (nM) 5-HT2c
T5 construct: purchased Euroscreen/BioSignal Packard Inc
T5 sequence (P28335 33-458): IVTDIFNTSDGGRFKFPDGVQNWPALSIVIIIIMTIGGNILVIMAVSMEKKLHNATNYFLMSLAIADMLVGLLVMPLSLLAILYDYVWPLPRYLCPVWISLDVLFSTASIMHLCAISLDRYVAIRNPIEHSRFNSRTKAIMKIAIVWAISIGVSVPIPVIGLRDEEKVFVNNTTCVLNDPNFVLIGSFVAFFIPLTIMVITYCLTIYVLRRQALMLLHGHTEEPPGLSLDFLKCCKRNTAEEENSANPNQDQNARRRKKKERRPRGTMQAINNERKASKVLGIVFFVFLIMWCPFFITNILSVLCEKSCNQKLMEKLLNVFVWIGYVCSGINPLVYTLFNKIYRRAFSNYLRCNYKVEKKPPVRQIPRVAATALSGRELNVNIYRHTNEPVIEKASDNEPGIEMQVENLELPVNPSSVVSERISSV

[8] = target: T6, hD2L (Homo sapiens, UniProt P14416); assay: Radioligand binding, dopamine D2 ([3H]spiperone); conditions: Table 4; [3H]spiperone 1 nM; read-out: Binding affinity, IC50 (nM) D2
T6 construct: purchased BioSignal Packard Inc., Montreal, Canada
T6 sequence (P14416 whole entry): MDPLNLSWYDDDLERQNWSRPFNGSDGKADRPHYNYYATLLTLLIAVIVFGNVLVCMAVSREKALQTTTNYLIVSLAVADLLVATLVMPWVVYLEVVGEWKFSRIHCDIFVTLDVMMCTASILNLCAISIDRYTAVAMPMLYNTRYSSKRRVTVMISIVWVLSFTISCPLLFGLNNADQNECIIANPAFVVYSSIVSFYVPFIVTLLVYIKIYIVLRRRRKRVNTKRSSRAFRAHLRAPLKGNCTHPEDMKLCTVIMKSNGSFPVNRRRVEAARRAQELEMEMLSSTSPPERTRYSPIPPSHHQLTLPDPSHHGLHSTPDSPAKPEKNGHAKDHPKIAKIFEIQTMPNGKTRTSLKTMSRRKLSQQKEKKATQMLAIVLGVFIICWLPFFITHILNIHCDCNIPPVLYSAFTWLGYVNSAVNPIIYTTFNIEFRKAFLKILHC
Outline: as §2

[9] = target: T7, hD4.2 receptor (Homo sapiens, UniProt P21917, DEL265-296); assay: Radioligand binding, dopamine D4 ([3H]YM-09151-2); conditions: Table 4; [3H]YM-09151-2 0.06 nM; read-out: Binding affinity, IC50 (nM) D4
T7 construct: purchased BioSignal Packard Inc., Montreal, Canada
T7 sequence (P21917 with tags, fused parts or gaps DEL265-296): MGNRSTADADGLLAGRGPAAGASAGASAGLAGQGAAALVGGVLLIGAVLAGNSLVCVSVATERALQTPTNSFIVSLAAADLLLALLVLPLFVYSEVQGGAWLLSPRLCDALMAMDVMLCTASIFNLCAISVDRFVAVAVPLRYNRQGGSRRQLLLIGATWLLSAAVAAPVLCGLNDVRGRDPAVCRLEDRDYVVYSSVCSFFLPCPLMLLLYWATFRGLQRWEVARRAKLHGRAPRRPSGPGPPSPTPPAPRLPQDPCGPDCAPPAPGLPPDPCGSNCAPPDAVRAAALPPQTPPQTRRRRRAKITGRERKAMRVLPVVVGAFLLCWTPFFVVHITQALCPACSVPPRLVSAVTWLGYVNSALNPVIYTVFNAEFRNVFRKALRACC
Outline: as §2

[10] = target: D1 (Homo sapiens, UniProt P21728); assay: Radioligand binding, dopamine D1; conditions: Table 4; read-out: Binding affinity, IC50 (nM) D1
D1, sequence (P21728 whole entry): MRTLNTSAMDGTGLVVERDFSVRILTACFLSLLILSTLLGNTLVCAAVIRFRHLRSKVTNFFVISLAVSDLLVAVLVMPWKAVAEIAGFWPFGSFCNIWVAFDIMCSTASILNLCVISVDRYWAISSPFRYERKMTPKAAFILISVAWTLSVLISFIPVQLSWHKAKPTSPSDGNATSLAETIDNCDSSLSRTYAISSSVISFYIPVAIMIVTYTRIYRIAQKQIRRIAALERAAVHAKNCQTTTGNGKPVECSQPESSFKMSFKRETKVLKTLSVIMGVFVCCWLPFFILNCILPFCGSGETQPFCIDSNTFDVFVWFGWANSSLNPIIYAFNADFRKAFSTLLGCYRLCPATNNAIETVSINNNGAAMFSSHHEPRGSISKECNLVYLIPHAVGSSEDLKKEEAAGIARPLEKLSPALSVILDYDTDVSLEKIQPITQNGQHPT

[11] = target: T8, Human serotonin 5-HT6 receptor (Homo sapiens, UniProt P50406); assay: [3H]LSD binding assay on cloned 5-HT6 receptor membranes; conditions: for binding affinity at 5-HT6 receptor labeled by [3H]LSD, in words: comment on Table 2
T8 construct: made in house; host or cells: insect Sf21 cells (baculovirus vector BacPAK8)
T8 sequence (P50406 whole entry): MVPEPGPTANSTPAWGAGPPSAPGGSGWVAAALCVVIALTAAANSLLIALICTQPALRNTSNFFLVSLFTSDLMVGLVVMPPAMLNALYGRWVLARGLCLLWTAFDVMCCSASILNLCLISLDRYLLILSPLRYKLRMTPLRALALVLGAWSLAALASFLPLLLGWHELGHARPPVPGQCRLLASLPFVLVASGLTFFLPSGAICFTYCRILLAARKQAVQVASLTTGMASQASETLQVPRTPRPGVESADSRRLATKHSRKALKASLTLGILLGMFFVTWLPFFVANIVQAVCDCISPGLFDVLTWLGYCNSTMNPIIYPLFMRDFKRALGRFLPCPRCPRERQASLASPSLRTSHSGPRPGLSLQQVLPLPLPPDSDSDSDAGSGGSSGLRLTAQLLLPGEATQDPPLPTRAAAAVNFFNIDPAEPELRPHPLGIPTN

[12] = Table 2, 1.87 nM [3H]LSD, 37 C, 60 min, read-out: IC50 (nM), binding affinity to the 5-HT6 receptor
[13] = Table 4, read-out: Binding affinity, IC50 (nM) 5-HT6

Compound	TD50 at 120 min [1] [mg/kg]	Rotarod deficit (%) ([2]; 200 p.o. (dose unit not given))	Rotarod deficit (%) ([2]; 300 p.o. (dose unit not given))	Rotarod deficit (%) ([2]; 400 p.o. (dose unit not given))	IC50 [3] [nM]	IC50 [4] [nM]	melting point [°C]	IC50 [5] [nM]	IC50 [6] [nM]	IC50 [7] [nM]	IC50 [8] [nM]	IC50 [9] [nM]	IC50 [10] [nM]	IC50 [11, 12] [nM]	IC50 [11, 13] [nM]	binding affinity at 5-HT6 receptor labeled by [3H]LSD, in words [11]
COc1ccc(C2(C)C(=O)c3c(N4CCN(C)CC4)cc(Cl)cc3N(Cc3ccccc3)C2=O)cc1 (centres unmarked) [Example 1, 1-Benzyl-7-chloro-3-(4-methoxy-phenyl)-3-methyl-5-(4-methyl-piperazin-1yl)-1H-quinoline-2,4-dione]	> 400	0	0	0	4410	1120	66 to 67	2280	7490	> 10000	> 10000	8020	174	1.9	1.9	significant affinities
COc1ccc(C2(C)C(=O)c3c(N4CCN(C)CC4)cc(Cl)cc3N(Cc3cccc(N)c3)C2=O)cc1 (centres unmarked) [Example 9, 1-(3-Amino-benzyl)-7-chloro-3-(4-methoxy-phenyl)-3-methyl-5-(4-methyl-piperazin-1-yl)-1H-quinoline-2,4-dione]	> 400	0	0	0	> 10000	> 10000	90 to 93	821	> 10000	> 10000	> 10000	> 10000	> 10000	5.2	5.2	–
CC1(c2ccc(I)cc2)C(=O)c2c(N3CCNCC3)cc(Cl)cc2N(Cc2ccccc2)C1=O (centres unmarked) [Example 21, 1-Benzyl-7-chloro-3-(4-iodo-phenyl)-3-methyl-5-piperazin-1-yl-1H-quinoline-2,4-dione]	> 400	0	0	0	468	553	176 to 177	1050	3340	1810	1640	5870	1620	6.9	6.9	–
COc1ccc(C2(C)C(=O)c3c(N4CCNCC4)cc(Cl)cc3N(Cc3ccc4ccccc4c3)C2=O)cc1 (centres unmarked) [Example 39, 7-Chloro-3-(4-methoxy-phenyl)-3-methyl-1-naphthalen-2-ylmethyl-5-piperazin-1-yl-1H-quinoline-2,4-dione]	> 400	0	0	0	> 10000	> 1000	169 to 170	> 1000	> 1000	> 1000	> 1000	> 10000	> 1000	4.7	4.7	–
CN1CCN(c2cc(Cl)cc3c2C(=O)C(C)(c2ccc([N+](=O)[O-])cc2)C(=O)N3Cc2ccccc2)CC1 (centres unmarked) [Example 3, 1-Benzyl-7-chloro-3-methyl-5-(4-methyl-piperazin-1-yl)-3-(4-nitro-phenyl)-1H-quinolin-2,4-dione]	> 400	0	0	0	5730	1540	179 to 180	360	4570	> 10000	> 10000	> 10000	814	4.7	4.7	–
CCNc1ccc([C@]2(C)C(=O)c3c(N4CCN(C)CC4)cc(Cl)cc3N(Cc3ccccc3)C2=O)cc1 (stereo in doubt) [Example 6, 1-Benzyl-7-chloro-3-(4-ethylamino-phenyl)-3-methyl-5-(4-methyl-piperazin-1-yl)-1H-quinoline-2,4-dione]	> 400	0	0	0	> 10000	> 1000	153 to 155	981	> 1000	> 1000	> 1000	> 10000	> 1000	3.4	3.4	–
COc1ccc(C2(C)C(=O)c3c(N4CCNCC4)cc(Cl)cc3N(Cc3cccc(Br)c3)C2=O)cc1 (centres unmarked) [Example 33, 1-(3-Bromo-benzyl)-7-chloro-3-(4-methoxy-phenyl)-3-methyl-5-piperazin-1-yl-1H-quinoline-2,4-dione]	> 400	0	0	0	> 1000	> 1000	113 to 114	> 1000	> 10000	> 1000	> 1000	> 10000	> 1000	1.8	1.8	significant affinities
C[C@]1(c2ccc(O)cc2)C(=O)c2c(N3CCNCC3)cc(Cl)cc2N(Cc2ccccc2)C1=O [Example 14-1, (S)-1-Benzyl-7-chloro-3-(4-hydroxy-phenyl)-3-methyl-5-piperazin-1-yl-1H-quinoline-2,4-dione]	> 400	0	0	0	7950	2000	–	7650	9860	> 10000	> 10000	> 10000	7070	1.9	1.9	significant affinities
